Experimental findings from ChEMBL document CHEMBL3862020, “A fluorescent analogue of tauroursodeoxycholic acid reduces ER stress and is cytoprotective” (Bioorg Med Chem Lett, 2016) are described below.

Activity calls are given as the source filed them. The calls are words filed in the database; no cut-off is given here.

A short description of series [1]: Cytotoxicity against human HuH7 cells assessed as reduction in cell viability by MTT assay. The format is toxicity, cell-based. The note with it: huh-7. On the technique in general: Formazan colour is commonly taken as a measure of viable cells.
The test system of series [2] is Huh-7. The series can be described thus: Cytoprotective activity against DCA-induced ER stress in human HuH7 cells assessed as increase in XBPu mRNA levels after 6 hrs. It is filed as functional, cell-based.
Series [3] deals with Huh-7. Kind of series: Cytoprotective activity against tunicamycin-induced ER stress in human HuH7 cells assessed as reduction in XBPs/XBPu ratio after 6 hrs. It is filed as functional, cell-based.
The test system of series [4] is Huh-7. Kind of series: Cytoprotective activity against DCA-induced cell death in human HuH7 cells assessed as increase in cell viability at 1 mM preincubated with cells followed by DCA addition measured after 24 hrs by MTT/INCELL assay. The format is functional, cell-based.
Series [5] relates to Huh-7. Kind of series: Cytoprotective activity against tunicamycin-induced ER stress in human HuH7 cells assessed as inhibition of XBPs mRNA levels after 6 hrs. The format is functional, cell-based.
For series [6], the system named is Huh-7. Kind of series: Cytoprotective activity against tunicamycin-induced ER stress in human HuH7 cells assessed as increase in XBPu mRNA levels after 6 hrs. It is filed as functional, cell-based.
Series [7] relates to Huh-7. Kind of series: Cytoprotective activity against tunicamycin-induced ER stress in human HuH7 cells assessed as inhibition of CHOP mRNA levels after 6 hrs. It is filed as functional, cell-based.
Series [8] deals with Huh-7. Kind of series: Cytoprotective activity against tunicamycin-induced ER stress in human HuH7 cells assessed as inhibition of BIP/GRP78 mRNA levels after 6 hrs. It is filed as functional, cell-based.
Series [9] has as its system Huh-7. Kind of series: Cytoprotective activity against DCA-induced ER stress in human HuH7 cells assessed as inhibition of XBPs mRNA levels after 6 hrs. It is filed as functional, cell-based.
The nature of series [10]: Cytotoxicity against HEK293 cells assessed as reduction in cell viability by MTT assay. It is filed as toxicity, cell-based. The note with it: human.
Series [11] has as its system Huh-7. The series can be described thus: Cytoprotective activity against DCA-induced cell death in human HuH7 cells assessed as increase in cell viability at 500 uM preincubated with cells followed by DCA addition measured after 24 hrs by MTT/INCELL assay. The format is functional, cell-based.
Series [12] has as its system Huh-7. Kind of series: Cytoprotective activity against DCA-induced ER stress in human HuH7 cells assessed as inhibition of […] mRNA levels after 6 hrs. The format is functional, cell-based.
For series [13], the system named is Huh-7. The series can be described thus: Cytoprotective activity against tunicamycin-induced ER stress in human HuH7 cells assessed as inhibition of BIP/GRP78 mRNA levels at 1mM after 6 hrs. The format is functional, cell-based.

As for `C[C@H](CCC(=O)NCCS(=O)(=O)O)[C@H]1CC[C@H]2[C@@H]3[C@@H](O)C[C@@H]4C[C@H](O)CC[C@]4(C)[C@H]3CC[C@]12C` [TAURURSODIOL], the Activity result in [1] and in [10] was “Non-Toxic” each time. Moreover, the result in [2], in [3], in series [4] and in series [6] was Active. In addition, the inhibition entry in series [5], in series [7], in [8] and in series [9] was “Active” throughout.
In the case of `C[C@H](CCC(=O)NCCS(=O)(=O)O)[C@H]1CC[C@H]2[C@@H]3[C@@H](O)C[C@@H]4C[C@H](NS(=O)(=O)c5cccc6c(N(C)C)cccc56)CCC4(C)[C@H]3CC[C@]12C` (single isomer, unassigned), the Activity result in series [1] and in [10] was “Non-Toxic” each time. The result in series [2], in [3], in [6] and in series [11] was Active. The inhibition entry in series [5], in [7], in series [8], in series [12] and in [9] was “Active” in each case.
On to `C[C@H](CCC(=O)O)[C@H]1CC[C@H]2[C@@H]3[C@@H](O)C[C@@H]4C[C@H](O)CC[C@]4(C)[C@H]3CC[C@]12C`, for which, in [13], the inhibition entry is “Active”.
